{"source": "patent US8058442B2", "about": "(Technion Research and Development Foundation Ltd., priority 2002, dated 2011)", "key": {"[1]": {"tested_on": "PC12 cells", "assay": "Neuroprotection of PC12 cells against serum-deprivation induced apoptosis (MTT test)", "assay_type": "cell-based, rat", "experimental": "Rat PC12 cells, originated from rat pheochromocytoma, were grown at 37° C., in a humid 5% CO2, 95% air environment, in a growth medium containing Dulbecco's modified Eagle's Medium (DMEM, GIBCO, BRL) supplemented with glucose (1 mg/1 ml), 5% fetal calf serum, 10% horse serum, and 1% of a mixture of streptomycin/penicillin. On confluence, the culture was removed and the cells were detached by vigorous washing, centrifuged at 200 g for 5 min and resuspended in DMEM with full serum content. 0.5×10^4 cells/well were placed in microtiter plates (96 wells) precoated with collagen (10 μg/cm^2 were allowed to attach for 24 h before treatment).\nTwenty-four hours after attachment of the PC12 cells as described in (g), the medium was replaced with DMEM containing 0.1% BSA. The test compounds were added to the cells after 1 h of incubation. After 24 h incubation, the cells were subjected to MTT test as previously described (Gassen et al., 1998). The absorption was determined in a Perkin-Elmer Dual Wavelength Eliza-Reader at λ=570/650 nm after automatic subtraction of background readings. The results are expressed as percentage of the untreated control.\nPC12 cells were grown in serum-free medium alone or in serum-free medium with different concentration of the chelators VK-28, M32, HLA20 and Rasagiline. After 24 h incubation, the cells were subjected to MTT test.\nCell viability was expressed as a percentage of cells cultured in medium supplemented with serum, which served as the control group and was designated as 100%. […] Experimental data are shown as mean±SD (r=6)."}, "[2]": {"target": "T1, rat brain MAO-A (Rattus norvegicus, UniProt P21396)", "T1 construct": "from tissue; host or cells: rat brain homogenate, 4500 g pellet", "T1 sequence (P21396 1-526)": "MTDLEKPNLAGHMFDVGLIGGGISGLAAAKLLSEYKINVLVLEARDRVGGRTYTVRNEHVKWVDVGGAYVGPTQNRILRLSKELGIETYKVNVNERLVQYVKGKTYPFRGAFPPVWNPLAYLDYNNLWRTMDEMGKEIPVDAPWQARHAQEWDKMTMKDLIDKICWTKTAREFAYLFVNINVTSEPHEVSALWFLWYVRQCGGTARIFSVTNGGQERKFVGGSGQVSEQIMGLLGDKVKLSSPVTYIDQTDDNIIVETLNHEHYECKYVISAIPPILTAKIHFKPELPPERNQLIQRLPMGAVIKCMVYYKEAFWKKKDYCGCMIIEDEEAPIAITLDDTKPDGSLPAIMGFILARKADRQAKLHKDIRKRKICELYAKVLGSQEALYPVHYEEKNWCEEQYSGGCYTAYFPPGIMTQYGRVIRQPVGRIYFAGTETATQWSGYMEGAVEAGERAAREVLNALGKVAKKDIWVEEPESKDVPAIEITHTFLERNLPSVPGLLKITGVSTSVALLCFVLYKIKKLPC", "assay": "In vitro inhibition of rat brain MAO-A", "assay_type": "biochemical", "conditions": "rat brain homogenate", "experimental": "(§1) Rats were decapitated and the brains were quickly taken into a weighted ice-cold sucrose buffer (0.32 M), and their weights were determined. All subsequent procedures were performed at 0-4° C. The brains were homogenized in 0.25 M sucrose (one part tissue to 20 parts sucrose) in a Teflon glass homogenizer followed by the addition of sucrose buffer to a final concentration of 10% homogenate. The homogenates were centrifuged at 600 g for 15 min. The supernatant fraction was taken out and centrifuged at 4500 g for 30 min, the pellet was diluted in 0.32 M sucrose buffer and kept frozen for later assaying of MAO. Protein concentration was determined with Bradford reagent at 595 nm, using bovine serum albumin as a standard.\n(§2) The test compound was added to a suitable dilution of the enzyme preparation (70 μg protein for MAO-B and 150 μg MAO-A assay) in 0.05 M phosphate buffer (pH 7.4). The mixture was incubated together with […], a specific inhibitor of MAO-B (for determination of MAO-A) or […] clorgylin, a specific inhibitor of MAO-A (for determination of MAO-B). Incubation was carried for 1 h at 37° C. before addition of ^14C-5-hydroxytryptamine binoxalate ([…]) for determination of MAO-A, or ^14C-phenylethylamine 100 µM for determination of MAO-B, and incubation continued for 30 min or 20 min, respectively. The reaction was stopped with 2 M ice-cold citric acid, and the metabolites were extracted and determined by liquid-scintillation counting in cpm units.\n(§3) MAO-A and MAO-B activities were determined in rat brain homogenate in vitro following incubation with varying concentrations of the test compounds.\nIn another experiment, the in vitro inhibitory activity of HLA20, M32, VK-28, M30, M31, and propargylamine (P) was tested against rat brain MAO-A. The test compounds were added to buffer containing 10^−7M deprenyl and were incubated with the tissue homogenate for 60 min at 37° C. before addition of ^14C-5-hydroxytryptamine. MAO-A activity in presence of the test compound was expressed as a percentage of that in control samples."}, "[3]": {"target": "T2, rat brain MAO-B (Rattus norvegicus, UniProt P19643)", "T2 construct": "from tissue; host or cells: rat brain homogenate, 4500 g pellet", "T2 sequence (P19643 1-520)": "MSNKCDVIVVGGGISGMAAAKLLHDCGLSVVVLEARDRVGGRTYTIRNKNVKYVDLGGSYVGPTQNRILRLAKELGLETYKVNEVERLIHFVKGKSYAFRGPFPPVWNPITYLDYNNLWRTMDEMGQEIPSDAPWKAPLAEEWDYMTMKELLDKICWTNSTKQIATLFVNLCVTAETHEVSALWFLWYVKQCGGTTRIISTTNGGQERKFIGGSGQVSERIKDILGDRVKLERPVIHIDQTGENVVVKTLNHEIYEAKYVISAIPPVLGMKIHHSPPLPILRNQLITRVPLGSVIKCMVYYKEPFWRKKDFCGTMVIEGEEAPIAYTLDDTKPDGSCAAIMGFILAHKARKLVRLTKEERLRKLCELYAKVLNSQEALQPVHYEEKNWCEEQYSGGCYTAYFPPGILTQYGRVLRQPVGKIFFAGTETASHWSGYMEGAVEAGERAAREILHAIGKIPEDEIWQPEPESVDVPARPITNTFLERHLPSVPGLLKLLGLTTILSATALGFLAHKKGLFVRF", "assay": "In vitro inhibition of rat brain MAO-B", "assay_type": "biochemical", "conditions": "100 μM; read-out: inhibition of MAO-B", "experimental": "as §1, §2, §3\nMAO-B activity in presence of the test compound was expressed as a percentage of that in control samples."}}, "note": "Structures can show the parent of a compound that is named as a salt."}
{"smiles": "CCOC(=O)C(C)(NC(=O)Cc1ccc(O)c2ncccc12)C(=O)OCC", "note": "[HLM7, diethyl 8-hydroxyquinolin-5-yl-methyl-acetamidomalonate]", "values": [{"measurement": "melting point", "value": "153 to 154", "unit": "°C"}]}
{"smiles": "NC(Cc1ccc(O)c2ncccc12)C(=O)O", "note": "(racemic) (as salt: salt) [HLM8, DL-3-(8-hydroxyquinolin-5-yl)alanine]", "values": [{"measurement": "melting point", "value": "194 °C (dec.)"}]}
{"smiles": "CCOC(=O)C(CS)NCc1ccc(O)c2ncccc12", "note": "(stereo not drawn) [Compound M32]", "values": [{"measurement": "number of survival cells (cell viability, % of cells cultured with serum)", "setting": "[1]; 0.1 μM chelator, serum-free medium, 24 h, serum-free control 38%", "value": 59, "unit": "%"}, {"measurement": "change in the protection against PC12 cell death induced by serum withdrawal", "setting": "[1]; 1 or 10 μM, compared with 0.1 μM", "value": "no significant change in the protection"}, {"measurement": "effect on MAO-A", "setting": "[2]", "value": "almost no effect"}, {"measurement": "inhibition at 100 µM", "setting": "[3]", "value": 17.2, "unit": "%"}]}
